From patent US10093623B2, “Cyclic amides as MetAP-2 inhibitors” (MERCK PATENT GmbH, priority 2012, dated 2018) come the findings set out here.

The target of this assay is MetAP-2 (Homo sapiens, UniProt P50579). The assay can be described thus: MetAP-2 activity measurement (coupled enzymatic reactions, Met-Arg-Ser substrate, dianisidine detection at 450 nm). Format: biochemical. Particulars: Inhibition of MetAP-2; read-out: IC50 enzyme. An outline of the steps: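 Rate read from the linear part of the 450 nm absorbance trace. Dianisidine oxidation by peroxidase reports H2O2 made when amino acid oxidase acts on methionine cleaved from MAS tripeptide, one mol dye per mol Met; extinction coefficient gives molar activity.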
MetAP-2, sequence (P50579 whole entry, species assumed): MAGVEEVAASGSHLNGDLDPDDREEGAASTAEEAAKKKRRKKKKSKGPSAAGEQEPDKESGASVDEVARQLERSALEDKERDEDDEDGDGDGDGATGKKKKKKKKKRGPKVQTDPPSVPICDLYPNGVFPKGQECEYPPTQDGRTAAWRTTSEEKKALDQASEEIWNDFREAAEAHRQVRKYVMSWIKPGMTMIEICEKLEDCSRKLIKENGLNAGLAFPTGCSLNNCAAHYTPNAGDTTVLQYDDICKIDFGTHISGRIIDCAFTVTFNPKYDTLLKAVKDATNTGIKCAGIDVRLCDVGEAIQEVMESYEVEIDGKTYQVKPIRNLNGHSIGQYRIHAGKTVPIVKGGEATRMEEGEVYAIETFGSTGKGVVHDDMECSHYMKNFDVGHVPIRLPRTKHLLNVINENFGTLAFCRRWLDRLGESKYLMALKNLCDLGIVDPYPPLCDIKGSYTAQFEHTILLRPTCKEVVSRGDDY

As to `Nc1ccccc1NC(=O)c1cc2cc(N3CC[C@](O)(C(=O)NCc4cc(F)cc(Cl)c4)C3=O)ccc2[nH]1` [B129, N-(2-Aminophenyl)-5-[(S)-3-(3-chloro-5-fluorobenzyl-carbamoyl)-3-hydroxy-2-oxo-pyrrolidin-1-yl]-1H-indole-2-carboxamide], the IC50 (in general, the concentration that inhibits the measured activity by half) is 10 to 1000 nM.

Consider `O=C(NCc1cc(F)cc(Cl)c1)[C@@]1(O)CCN(Cc2ccccc2)C1=O` [A140, N-(3-Chloro-5-fluorobenzyl)-(S)-1-benzyl-3-hydroxy-2-oxo-pyrrolidine-3-carboxamide], for which the concentration for half-maximal inhibition (IC50) lay in the range of 10 to 1000 nM.

Take `N#Cc1ccc(N2CC[C@@](O)(C(=O)NCc3cc(F)cc(Cl)c3)C2=O)cn1` [A106, N-(3-Chloro-5-fluorobenzyl)-(R)-1-(6-cyanopyridin-3-yl)-3-hydroxy-2-oxopyrrolidine-3-carboxamide]: the half-maximal inhibitory concentration (IC50) was more than 10000 nM.

Regarding `CN1CCCC1CCNC(=O)[C@@]1(O)CCN(c2ccccc2)C1=O` (stereo partly drawn) [A63, N-[2-(1-Methylpyrrolidin-2-yl)ethyl]-(S)-3-hydroxy-2-oxo-1-phenyl-pyrrolidine-3-carboxamide], the half-maximal inhibitory concentration (IC50) was more than 10000 nM.

For the compound `CC(NC(=O)C1(O)CCN(c2ccccc2)C1=O)c1cccc(F)c1` (centres unmarked) [A145, N-[1-(3-Fluorophenyl)ethyl]-3-hydroxy-2-oxo-1-phenyl-pyrrolidine-3-carboxamide], the half-maximal inhibitory concentration (IC50) was 1000 to 10000 nM.

In the case of `O=C(NCc1cc(F)cc(Cl)c1)[C@@]1(O)CCCN(Cc2ccccc2)C1=O` [A81, N-(3-Chloro-5-fluorobenzyl)-(S)-1-benzyl-3-hydroxy-2-oxopiperidine-3-carboxamide], the half-maximal inhibitory concentration (IC50) was 10 to 1000 nM.

Consider `CC1(C)O[C@H]2[C@H](CCC[C@@H]2N2CCC(O)(C(=O)NCc3cc(F)cc(Cl)c3)C2=O)O1` (stereo partly drawn) [A129, N-(3-Chloro-5-fluorobenzyl)-1-((3aR,4S,7aS)-2,2-dimethyl-hexahydrobenzo-1,3-dioxol-4-yl)-3-hydroxy-2-oxopyrrolidine-3-carboxamide], for which the 50% inhibitory concentration (IC50) fell in the range of 1000 to 10000 nM.

Take `CC(=O)Nc1ccc(N2CCC(O)(C(=O)NCc3cc(F)cc(F)c3)C2=O)cn1` (centres unmarked) [A176, N-(3,5-Difluorobenzyl)-1-(6-acetylaminopyridin-3-yl)-3-hydroxy-2-oxopyrrolidine-3-carboxamide]: the IC50 is 10 to 1000 nM.

Take `O=C1N(c2ccccc2)CCC1(O)CNCc1ccc(F)cc1` (centres unmarked) [B45, 3-[(4-Fluorobenzylamino)-methyl]-3-hydroxy-1-phenyl-pyrrolidin-2-one]: the IC50 lay in the range of 1000 to 10000 nM.

Regarding `NNC(=O)c1cc2cc(N3CC[C@](O)(C(=O)NCc4cc(F)cc(Cl)c4)C3=O)ccc2[nH]1` [B134, N-(3-Chloro-5-fluorobenzyl)-(S)-1-(2-hydrazinocarbonyl-1H-indol-5-yl)-3-hydroxy-2-oxo-pyrrolidine-3-carboxamide], the IC50 was in the range of 10 to 1000 nM.

Turning to `CN(C)C(=O)c1cc2cc(N3CC[C@@](O)(C(=O)NCc4cc(F)cc(Cl)c4)C3=O)ccc2[nH]1` [B90, N,N-Dimethyl-5-[(R)-3-(3-chloro-5-fluorobenzylcarbamoyl)-3-hydroxy-2-oxopyrrolidin-1-yl]-1H-indole-2-carboxamide], the IC50 was more than 10000 nM.

For the compound `O=C(NCc1cc(F)cc(Cl)c1)[C@]1(O)CCN(c2ccc3[nH]c(=O)ccc3c2)C1=O` [B41, N-(3-Chloro-5-fluorobenzyl)-(R)-3-hydroxy-2-oxo-1-(2-oxo-1,2-dihydroquinolin-6-yl)pyrrolidine-3-carboxamide], the 50% inhibitory concentration (IC50) lay in the range of 1000 to 10000 nM.

For the compound `Cc1cncc(N2CCC(O)(C(=O)NCc3cc(F)cc(Cl)c3)C2=O)c1` (centres unmarked) [A117, N-(3-Chloro-5-fluorobenzyl)-3-hydroxy-1-(5-methylpyridin-3-yl)-2-oxopyrrolidine-3-carboxamide], the half-inhibitory concentration (IC50) lay within 10 to 1000 nM.

For the compound `O=C1CCc2cc(N3CC[C@](O)(C(=O)NCc4c(F)cc(Cl)cc4F)C3=O)ccc2N1` [A249, N-(4-Chloro-2,6-difluorobenzyl)-(S)-3-hydroxy-2-oxo-1-(2-oxo-1,2,3,4-tetrahydroquinolin-6-yl)-pyrrolidine-3-carboxamide], the half-inhibitory concentration (IC50) is 10 to 1000 nM.

For `CC(C)(C)OC(=O)N1CCN(C(=O)c2cc3cc(N4CC[C@](O)(C(=O)NCc5cc(F)cc(Cl)c5)C4=O)ccc3[nH]2)CC1` [B123, tert-Butyl 4-{5-[(S)-3-(3-chloro-5-fluorobenzylcarbamoyl)-3-hydroxy-2-oxopyrrolidin-1-yl]-1H-indol-2-carbonyl}-piperazine-1-carboxylate], the IC50 fell in the range of 10 to 1000 nM.

On to `COc1ccc(Cl)cc1N1CCC(O)(C(=O)NCc2cc(F)cc(Cl)c2)C1=O` (centres unmarked) [B13, 1-(5-Chloro-2-methoxyphenyl)-3-hydroxy-2-oxopyrrolidine-3-carboxylic acid 3-chloro-5-fluorobenzylamide], for which the IC50 was 1000 to 10000 nM.

Regarding `O=C(NCc1cc(F)cc(Cl)c1)[C@]1(O)CCCN(Cc2ccccc2)C1=O` [A86, N-(3-Chloro-5-fluorobenzyl)-(R)-1-benzyl-3-hydroxy-2-oxo-piperidine-3-carboxamide], the 50% inhibitory concentration (IC50) was more than 10000 nM.

Take `O=C(NCCc1cc(F)cc(Cl)c1)C1(O)CCN(c2ccc3[nH]ncc3c2)C1=O` (centres unmarked) [A168]: the IC50 fell in the range of 10 to 1000 nM.

Turning to `O=C(NCc1cc(F)cc(Cl)c1)C1(O)CCN(CCc2ccc(F)cc2F)C1=O` (centres unmarked) [A237, N-(3-Chloro-5-fluorobenzyl)-1-[2-(2,4-Difluorophenyl)ethyl]-3-hydroxy-2-oxopyrrolidine-3-carboxamide], the half-inhibitory concentration (IC50) lay within 1000 to 10000 nM.

As to `O=C(NCc1cc(F)cc(Cl)c1)[C@@]1(O)CCCCN(c2ccccc2)C1=O` [A66, N-(3-chloro-5-fluorobenzyl)-(S)-3-hydroxy-2-oxo-1-phenylazepane-3-carboxamide], the 50% inhibitory concentration (IC50) was in the range of 1000 to 10000 nM.

`C=C(Cc1ccccc1)C(=O)[C@]1(O)CCN(c2ccccc2)C1=O` [A111, (R)-3-(2-Benzylacryloyl)-3-hydroxy-1-phenylpyrrolidin-2-one]: the concentration for half-maximal inhibition (IC50) is more than 10000 nM.

Turning to `O=C(c1cccc(N2CC[C@@](O)(C(=O)NCc3cc(F)cc(Cl)c3)C2=O)c1)N1CCCC1` [A83, N-(3-Chloro-5-fluorobenzyl)-(R)-3-hydroxy-2-oxo-1-[3-(pyrrolidine-1-carbonyl)phenyl]pyrrolidine-3-carboxamide], the half-inhibitory concentration (IC50) was more than 10000 nM.

Take `NCCOCCOCCNC(=O)c1cc2cc(N3CC[C@](O)(C(=O)NCc4cc(F)cc(Cl)c4)C3=O)ccc2[nH]1` [B108, N-({2-[2-(2-Aminoethoxy)-ethoxy]ethyl})-5-[(S)-3-(3-chloro-5-fluorobenzylcarbamoyl)-3-hydroxy-2-oxopyrrolidin-1-yl]-1H-indole-2-carboxamide]: the IC50 fell in the range of 10 to 1000 nM.

For the compound `O=C1CCc2cc(N3CC[C@](O)(C(=O)NCc4cc(F)c(F)cc4Cl)C3=O)ccc2N1` [A234, N-(2-Chloro-4,5-difluorobenzyl)-(S)-3-hydroxy-2-oxo-1-(2-oxo-1,2,3,4-tetrahydroquinolin-6-yl)-pyrrolidine-3-carboxamide], the IC50 is 10 to 1000 nM.

For `NC(=O)c1cccc(N2CC[C@@](O)(C(=O)NCCc3cc(F)cc(Cl)c3)C2=O)c1` [A159, N-[2-(3-Chloro-5-fluorophenyl)-ethyl]-(R)-1-(3-carbamoyl-phenyl)-3-hydroxy-2-oxo-pyrrolidine-3-carboxamide], the IC50 is 1000 to 10000 nM.

Consider `CC(=O)OC1(C(=O)NCc2cc(F)cc(Cl)c2)CCN(c2ccc3c(c2)CCC(=O)N3)C1=O` (centres unmarked) [B91, 3-(3-Chloro-5-fluorobenzyl-carbamoyl)-2-oxo-1-(2-oxo-1,2,3,4-tetrahydroquinolin-6-yl)-pyrrolidin-3-yl acetate], for which the half-maximal inhibitory concentration (IC50) was in the range of 1000 to 10000 nM.

Regarding `CNC(=O)c1cc2cc(N3CC[C@](O)(C(=O)NCc4cc(F)cc(Cl)c4)C3=O)ccc2[nH]1` [B96, N-Methyl-5-[(S)-3-(3-chloro-5-fluorobenzylcarbamoyl)-3-hydroxy-2-oxopyrrolidin-1-yl]-1H-indole-2-carboxamide], the half-inhibitory concentration (IC50) lay within 10 to 1000 nM.

For `CCOC(=O)c1cc2cc(N3CC[C@@](O)(C(=O)NCc4cc(F)cc(Cl)c4)C3=O)ccc2[nH]1` [B81, Ethyl 5-[(R)-3-(3-chloro-5-fluorobenzylcarbamoyl)-3-hydroxy-2-oxopyrrolidin-1-yl]-1H-indole-2-carboxylate], the IC50 was more than 10000 nM.

Turning to `O=C1CCc2cc(N3CC[C@](O)(C(=O)NCc4ccc(F)cc4Cl)C3=O)ccc2N1` [A242, N-(2-Chloro-4-fluorobenzyl)-(S)-3-hydroxy-2-oxo-1-(2-oxo-1,2,3,4-tetrahydroquinolin-6-yl)-pyrrolidine-3-carboxamide], the IC50 fell in the range of 10 to 1000 nM.

`Cc1ccc(CNCC2(O)CCN(c3ccccc3)C2=O)cc1` (centres unmarked) [B49, 3-Hydroxy-3-[(4-methyl-benzylamino)methyl]-1-phenyl-pyrrolidin-2-one]: the half-inhibitory concentration (IC50) was 10 to 1000 nM.

`O=C(NCc1cc(F)cc(Cl)c1)C1(O)CCN(C[C@H]2CC[C@H](C(=O)O)CC2)C1=O` (some centres unmarked) [A273, 4-[3-(3-Chloro-5-fluorobenzylcarbamoyl)-3-hydroxy-2-oxopyrrolidin-1-yl-methyl]cyclohexanecarboxylic acid]: the 50% inhibitory concentration (IC50) is 1000 to 10000 nM.

As to `O=C(NCc1cc(F)cc(Cl)c1)C1(O)CCN(c2cnc3[nH]c(C(F)(F)F)nc3c2)C1=O` (centres unmarked) [B36, N-(3-Chloro-5-fluorobenzyl)-3-hydroxy-2-oxo-1-(2-trifluoromethyl-3H-imidazo-[4,5-b]pyridin-6-yl)pyrrolidine-3-carboxamide], the IC50 was in the range of 1000 to 10000 nM.

Regarding `CNc1ccc(N2CCC(O)(C(=O)NCc3cc(F)cc(Cl)c3)C2=O)cn1` (centres unmarked) [A116, N-(3-Chloro-5-fluorobenzyl)-3-hydroxy-1-(6-methylamino-pyridin-3-yl)-2-oxopyrrolidine-3-carboxamide], the IC50 was 10 to 1000 nM.

With `NC(=O)c1ccc(F)c(N2CC[C@](O)(C(=O)NCc3cc(F)cc(Cl)c3)C2=O)c1` [B70, N-(3-Chloro-5-fluorobenzyl)-(S)-1-(5-carbamoyl-2-fluorophenyl)-3-hydroxy-2-oxopyrrolidine-3-carboxamide], the concentration for half-maximal inhibition (IC50) is 10 to 1000 nM.

`O=C1CCc2cc(N3CC[C@](O)(C(=O)NCc4cc(Cl)c(F)cc4F)C3=O)ccc2N1` [A235, N-(5-Chloro-2,4-difluorobenzyl)-(S)-3-hydroxy-2-oxo-1-(2-oxo-1,2,3,4-tetrahydroquinolin-6-yl)-pyrrolidine-3-carboxamide]: the 50% inhibitory concentration (IC50) was in the range of 10 to 1000 nM.
